In brackets after ≈: the same amount, converted by molar mass.
Experiments:
Assay in all cases: in vitro antibacterial evaluation, MIC by broth dilution
Assay type in all cases: cell-based
Streptococcus sp. = conditions: broth dilution, 18 hours at 35° C.
In short: (§1)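 Inoculum 5×10^5 CFU/mL; concentrations 64 to 0.06 μg/mL; MIC defined as lowest inhibitory level. Conducted by broth dilution under NCCLS guidelines.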

Enterococcus sp. = conditions: broth dilution, 18 hours at 35° C.
In short: as §1

Staphylococcus sp. = conditions: broth dilution, 18 hours at 35° C.
In short: as §1

Escherichia coli = conditions: 18 hours at 35° C.

CC(c1ccccc1)C1NC(=O)CNC(=O)C(CO)NC(=O)C(C(O)C2CNC(=N)N2C2OC(CO)C(O)C(O)C2O)NC(=O)C(C(O)C2CNC(=N)N2)NC(=O)C(Cc2ccc(OC3OC(CO)C(OC4OC(COCC=Cc5ccc(N(C)C)cc5)C(O)C(O)C4O)C(O)C3O)cc2)NC1=O (stereo not shown) [Example 243]
MIC Streptococcus agalactiae (GC 4564) (Streptococcus sp.): 32 µg/mL (≈ 22 µM) | MIC Streptococcus pneumoniae (ATCC 6301) (Streptococcus sp.): 32 µg/mL (≈ 22 µM) | MIC Streptococcus pneumoniae (GC 1894) (Streptococcus sp.): 8 µg/mL (≈ 5.5 µM) | MIC Streptococcus pneumoniae (GC 4565) (Streptococcus sp.): 16 µg/mL (≈ 11 µM) | MIC Streptococcus pyogenes (GC 4563) (Streptococcus sp.): 32 µg/mL (≈ 22 µM) | MIC Streptococcus pneumoniae (ATCC 6301) (Streptococcus sp.; inoculum 5×10^5 CFU/mL, strain ATCC 6301): 32 µg/mL (≈ 22 µM) | MIC Streptococcus pneumoniae (GC 1894) (Streptococcus sp.; inoculum 5×10^5 CFU/mL, strain GC 1894): 8 µg/mL (≈ 5.5 µM) | MIC Streptococcus pyogenes (GC 4563) (Streptococcus sp.; inoculum 5×10^5 CFU/mL, strain GC 4563): 32 µg/mL (≈ 22 µM) | MIC Streptococcus agalactiae (GC 4564) (Streptococcus sp.; inoculum 5×10^5 CFU/mL, strain GC 4564): 32 µg/mL (≈ 22 µM) | MIC Streptococcus pneumoniae (GC 4565) (Streptococcus sp.; inoculum 5×10^5 CFU/mL, strain GC 4565): 16 µg/mL (≈ 11 µM) | MIC Enterococcus avium (GC 4558) (Enterococcus sp.): 32 µg/mL (≈ 22 µM) | MIC Enterococcus faecalis (ATCC 29212) (Enterococcus sp.): >64 µg/mL | MIC Enterococcus faecalis (GC 2242) (Enterococcus sp.): 64 µg/mL (≈ 44 µM) | MIC Enterococcus faecalis (GC 2691) (Enterococcus sp.): >64 µg/mL | MIC Enterococcus faecalis (GC 3059) (Enterococcus sp.): >64 µg/mL | MIC Enterococcus faecalis (GC 4552) (Enterococcus sp.): >64 µg/mL | MIC Enterococcus faecalis (GC 4553) (Enterococcus sp.): 64 µg/mL (≈ 44 µM) | MIC Enterococcus faecalis (GC 4554) (Enterococcus sp.): >64 µg/mL | MIC Enterococcus faecalis (GC 6189) (Enterococcus sp.): 64 µg/mL (≈ 44 µM) | MIC Enterococcus faecium (GC 2243) (Enterococcus sp.): 64 µg/mL (≈ 44 µM) | MIC Enterococcus faecium (GC 4556) (Enterococcus sp.): >64 µg/mL | MIC Enterococcus faecium (GC 4557) (Enterococcus sp.): 32 µg/mL (≈ 22 µM) | MIC Enterococcus faecalis (ATCC 29212) (Enterococcus sp.; strain ATCC 29212): >64 µg/mL | MIC Enterococcus faecium (GC 2243) (Enterococcus sp.; strain GC 2243): 64 µg/mL (≈ 44 µM) | MIC Enterococcus faecalis (GC 4552) (Enterococcus sp.; strain GC 4552): >64 µg/mL | MIC Enterococcus faecalis (GC 4553) (Enterococcus sp.; strain GC 4553): 64 µg/mL (≈ 44 µM) | MIC Enterococcus faecalis (GC 4554) (Enterococcus sp.; strain GC 4554): >64 µg/mL | MIC Enterococcus faecium (GC 4556) (Enterococcus sp.; strain GC 4556): >64 µg/mL | MIC Enterococcus faecium (GC 4557) (Enterococcus sp.; strain GC 4557): 32 µg/mL (≈ 22 µM) | MIC Enterococcus avium (GC 4558) (Enterococcus sp.; strain GC 4558): 32 µg/mL (≈ 22 µM) | MIC Enterococcus faecalis (GC 6189) (Enterococcus sp.; strain GC 6189): 64 µg/mL (≈ 44 µM) | MIC Enterococcus faecalis (GC 2242) (Enterococcus sp.; inoculum 5×10^5 CFU/mL, strain GC 2242): 64 µg/mL (≈ 44 µM) | MIC Enterococcus faecalis (GC 2691) (Enterococcus sp.; inoculum 5×10^5 CFU/mL, strain GC 2691): >64 µg/mL | MIC Enterococcus faecalis (GC 3059) (Enterococcus sp.; inoculum 5×10^5 CFU/mL, strain GC 3059): >64 µg/mL | MIC Coagulase Negative Staphylococcus (GC 4547) (Staphylococcus sp.): 64 µg/mL (≈ 44 µM) | MIC Coagulase Negative Staphylococcus (GC 4548) (Staphylococcus sp.): 32 µg/mL (≈ 22 µM) | MIC Coagulase Negative Staphylococcus (GC 4549) (Staphylococcus sp.): 32 µg/mL (≈ 22 µM) | MIC Coagulase Negative Staphylococcus (GC 4551) (Staphylococcus sp.): 64 µg/mL (≈ 44 µM) | MIC Coagulase Negative Staphylococcus (GC 6257) (Staphylococcus sp.): 32 µg/mL (≈ 22 µM) | MIC Staphylococcus aureus (ATCC 29213) (Staphylococcus sp.): 64 µg/mL (≈ 44 µM) | MIC Staphylococcus aureus (GC 1131) (Staphylococcus sp.): 64 µg/mL (≈ 44 µM) | MIC Staphylococcus aureus (GC 3051) (Staphylococcus sp.): 64 µg/mL (≈ 44 µM) | MIC Staphylococcus aureus (GC 3053) (Staphylococcus sp.): 64 µg/mL (≈ 44 µM) | MIC Staphylococcus aureus (GC 4541) (Staphylococcus sp.): 64 µg/mL (≈ 44 µM) | MIC Staphylococcus aureus (GC 4542) (Staphylococcus sp.): 64 µg/mL (≈ 44 µM) | MIC Staphylococcus aureus (GC 4544) (Staphylococcus sp.): 64 µg/mL (≈ 44 µM) | MIC Staphylococcus aureus (GC 4545) (Staphylococcus sp.): 64 µg/mL (≈ 44 µM) | MIC Staphylococcus aureus-SMITH (GC 4543) (Staphylococcus sp.): 64 µg/mL (≈ 44 µM) | MIC Staphylococcus haemolyticus (GC 4546) (Staphylococcus sp.): 64 µg/mL (≈ 44 µM) | MIC Staphylococcus aureus (ATCC 29213) (Staphylococcus sp.; strain ATCC 29213): 64 µg/mL (≈ 44 µM) | MIC Staphylococcus aureus (GC 1131) (Staphylococcus sp.; strain GC 1131): 64 µg/mL (≈ 44 µM) | MIC Staphylococcus aureus (GC 3051) (Staphylococcus sp.; strain GC 3051): 64 µg/mL (≈ 44 µM) | MIC Staphylococcus aureus (GC 3053) (Staphylococcus sp.; strain GC 3053): 64 µg/mL (≈ 44 µM) | MIC Staphylococcus aureus (GC 4541) (Staphylococcus sp.; strain GC 4541): 64 µg/mL (≈ 44 µM) | MIC Staphylococcus aureus (GC 4542) (Staphylococcus sp.; strain GC 4542): 64 µg/mL (≈ 44 µM) | MIC Staphylococcus aureus-SMITH (GC 4543) (Staphylococcus sp.; strain GC 4543): 64 µg/mL (≈ 44 µM) | MIC Staphylococcus aureus (GC 4544) (Staphylococcus sp.; strain GC 4544): 64 µg/mL (≈ 44 µM) | MIC Staphylococcus aureus (GC 4545) (Staphylococcus sp.; strain GC 4545): 64 µg/mL (≈ 44 µM) | MIC Staphylococcus haemolyticus (GC 4546) (Staphylococcus sp.; strain GC 4546): 64 µg/mL (≈ 44 µM) | MIC Coagulase Negative Staphylococcus (GC 4547) (Staphylococcus sp.; strain GC 4547): 64 µg/mL (≈ 44 µM) | MIC Coagulase Negative Staphylococcus (GC 4548) (Staphylococcus sp.; strain GC 4548): 32 µg/mL (≈ 22 µM) | MIC Coagulase Negative Staphylococcus (GC 4549) (Staphylococcus sp.; strain GC 4549): 32 µg/mL (≈ 22 µM) | MIC Coagulase Negative Staphylococcus (GC 4551) (Staphylococcus sp.; strain GC 4551): 64 µg/mL (≈ 44 µM) | MIC Coagulase Negative Staphylococcus (GC 6257) (Staphylococcus sp.; strain GC 6257): 32 µg/mL (≈ 22 µM) | MIC Escherichia coli (ATCC 25922) (Escherichia coli): >64 µg/mL | MIC Escherichia coli (GC 4559) (Escherichia coli): >64 µg/mL | MIC Escherichia coli (GC 4560) (Escherichia coli): 64 µg/mL (≈ 44 µM)
